{"source": "paper PMC12087296", "about": "(Microbial Biotechnology, 2025)", "key": {"TlpQ [1]": {"target": "T1, TlpQ (Pseudomonas aeruginosa, UniProt Q9I0I4)", "T1 sequence (Q9I0I4 33-363 limits assumed)": "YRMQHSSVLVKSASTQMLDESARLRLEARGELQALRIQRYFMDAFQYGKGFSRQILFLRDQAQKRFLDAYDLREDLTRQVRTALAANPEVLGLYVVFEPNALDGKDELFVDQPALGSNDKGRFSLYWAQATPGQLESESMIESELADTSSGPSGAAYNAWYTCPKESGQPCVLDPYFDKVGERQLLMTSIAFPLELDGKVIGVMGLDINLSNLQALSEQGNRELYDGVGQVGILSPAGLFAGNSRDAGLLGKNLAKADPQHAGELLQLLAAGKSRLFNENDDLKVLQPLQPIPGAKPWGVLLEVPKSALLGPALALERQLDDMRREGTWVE", "test": "isothermal titration calorimetry, […]°C", "format": "binding"}, "TlpQ [2]": {"target": "T1, TlpQ", "test": "isothermal titration calorimetry, […]°C", "format": "binding", "remark": "listed apart in the source"}}, "note": "Where two headings read alike, the source gives them in different places.", "data": [{"compound": "CNC[C@H](O)c1ccc(O)c(O)c1", "note": "[epinephrine]", "values": [{"measurement": "Kd", "setting": "TlpQ [1]", "value": 363, "unit": "µM"}]}, {"compound": "NCCc1ccc(O)c(O)c1", "note": "[dopamine]", "values": [{"measurement": "Kd", "setting": "TlpQ [2]", "value": 137, "unit": "µM"}]}]}
